Results taken from patent publication US20230158025A1 (UNIVERSITY OF UTAH RESEARCH FOUNDATION, priority 2020, published 2023).
Where two headings read alike, the source gives them in different places.

Columns and labels:
recombinant human GALK1 = recombinant human GALK1 (Homo sapiens, UniProt P51570); assay: hGALK1 biochemical activity assay (Kinase-Glo Plus, ATP depletion)
Procedure, shortened: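 Turnover is measured as ATP depletion by Kinase-Glo Plus luminescence after a 1 h room-temperature reaction. Compounds span 11 concentrations, 57.4 μM–0.97 nM, in final 20 mM HEPES pH 8.0 with 5 mM MgCl2. The substrate solution held 35 μM ATP; the added solution held 5 nM human or mouse GALK1 and 100 μM galactose.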

PAMPA permeability = settings: PAMPA
[1] = aqueous kinetic solubility; settings: aqueous kinetic solubility
[2] = rat microsomal stability (RLM); settings: microsomal stability half-life
recombinant mouse GALK1 = recombinant mouse GALK1 (Mus musculus, UniProt Q9R0N0); assay: mGALK1 biochemical activity assay (Kinase-Glo Plus, ATP depletion)
Procedure, shortened: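 Recombinant GALK1 (5 nM) with 100 μM galactose; GALK1 turnover read as ATP depletion by Kinase-Glo Plus luminescence. Reaction ran 1 h at room temperature before detection reagent was added.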

[3] = Tables 2-15, 35 μM ATP, 100 μM galactose, 1 h, bracketed figure after some values (e.g. −1.2) is undefined and not reported, read-out: hGALK IC50
[4] = recombinant human GALK1, Kinase-Glo Plus ATP depletion, read-out: hGALK
[5] = Tables 2-15, 35 μM ATP, 100 μM galactose, 1 h, bracketed figure after some values is undefined and not reported, read-out: mGALK IC50
[6] = recombinant mouse GALK1, Kinase-Glo Plus ATP depletion, read-out: mGALK

Sequence of recombinant mouse GALK1 (Q9R0N0 whole entry): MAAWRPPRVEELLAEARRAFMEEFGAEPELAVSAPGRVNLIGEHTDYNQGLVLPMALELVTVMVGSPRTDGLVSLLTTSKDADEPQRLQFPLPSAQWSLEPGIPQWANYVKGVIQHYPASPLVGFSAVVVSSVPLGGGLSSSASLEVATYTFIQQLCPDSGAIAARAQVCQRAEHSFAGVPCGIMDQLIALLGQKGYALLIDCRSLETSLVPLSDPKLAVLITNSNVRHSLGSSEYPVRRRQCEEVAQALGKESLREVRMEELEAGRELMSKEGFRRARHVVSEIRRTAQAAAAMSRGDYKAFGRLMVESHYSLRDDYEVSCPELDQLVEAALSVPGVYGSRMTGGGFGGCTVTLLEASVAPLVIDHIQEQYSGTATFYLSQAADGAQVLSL
Sequence of recombinant human GALK1 (P51570 whole entry): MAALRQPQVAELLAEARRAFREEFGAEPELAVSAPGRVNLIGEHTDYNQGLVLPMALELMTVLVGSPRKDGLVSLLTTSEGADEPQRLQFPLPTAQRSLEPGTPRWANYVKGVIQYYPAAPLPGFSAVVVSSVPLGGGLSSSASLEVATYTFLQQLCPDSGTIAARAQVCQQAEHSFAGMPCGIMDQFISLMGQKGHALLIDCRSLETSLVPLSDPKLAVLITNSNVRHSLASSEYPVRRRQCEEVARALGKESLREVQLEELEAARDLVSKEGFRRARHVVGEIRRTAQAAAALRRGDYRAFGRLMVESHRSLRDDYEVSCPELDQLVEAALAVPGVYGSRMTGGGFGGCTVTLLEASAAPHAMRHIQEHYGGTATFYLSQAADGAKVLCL

| SMILES | IC50 (recombinant human GALK1; [3]) | IC50 (recombinant human GALK1; [4]) | Perm. (1 × 10^−6 cm/sec) (PAMPA permeability) | Sol. [1] | Metab. Stabil. (m) [2] | IC50 (recombinant mouse GALK1; [5]) | IC50 (recombinant mouse GALK1; [6]) | hGALK (μM) (recombinant human GALK1; recombinant human GALK1, Kinase-Glo Plus ATP depletion) | mGALK (μM) (recombinant mouse GALK1; recombinant mouse GALK1, Kinase-Glo Plus ATP depletion) |
| --- | --- | --- | --- | --- | --- | --- | --- | --- | --- |
| CC1=C(C(=O)Nc2cccc(C(=O)O)n2)C(c2ccccc2Cl)N=C(Nc2nc3ccccc3o2)N1 (stereo not shown) [Compound 195, 6-(2-(benzo[d]oxazol-2-ylamino)-4-(2-chlorophenyl)-6-methyl-1,4-dihydropyrimidine-5-carboxamido)picolinic acid] | 4.32 µM | 4.32 µM | <1 1 × 10^−6 cm/sec | 60.0 µg/mL | >30 m | 6.85 µM | 6.85 µM | – | – |
| COC(=O)c1ccnc(NC(=O)C2=C(C)NC(Nc3nc4ccccc4o3)=NC2c2ccccc2Cl)c1 (stereo not shown) [Compound 196, methyl 2-(2-(benzo[d]oxazol-2-ylamino)-4-(2-chlorophenyl)-6-methyl-1,4-dihydropyrimidine-5-carboxamido)isonicotinate] | 2.73 µM | 2.73 µM | 27.7 1 × 10^−6 cm/sec | <1 µg/mL | 18.44 m | 5.44 µM | 5.44 µM | – | – |
| COC(=O)c1cccc(NC(=O)C2=C(C)NC(Nc3nc4ccccc4o3)=NC2c2ccccc2Cl)n1 (stereo not shown) [Compound 197] | 9.68 µM | 9.68 µM | 18.9 1 × 10^−6 cm/sec | <1 µg/mL | >30 m | 12.2 µM | 12.2 µM | – | – |
| CC1=C(C(=O)Nc2nc(CO)cs2)C(c2ccccc2Cl)N=C(Nc2nc3ccccc3o2)N1 (stereo not shown) [Compound 198, 2-(benzo[d]oxazol-2-ylamino)-4-(2-chlorophenyl)-N-(4-(hydroxymethyl)thiazol-2-yl)-6-methyl-1,4-dihydropyrimidine-5-carboxamide] | 17.2 µM | 17.2 µM | 59.9 1 × 10^−6 cm/sec | <1 µg/mL | >30 m | 19.3 µM | 19.3 µM | – | – |
| CC1=C(C(=O)Nc2ccnc(C(=O)O)c2)C(c2ccccc2Cl)N=C(Nc2nc3ccccc3o2)N1 (stereo not shown) [Compound 203, 4-(2-(benzo[d]oxazol-2-ylamino)-4-(2-chlorophenyl)-6-methyl-1,4-dihydropyrimidine-5-carboxamido)picolinic acid] | – | 3.43 µM | <1 1 × 10^−6 cm/sec | >74 µg/mL | >30 m | 3.06 µM | 3.06 µM | – | – |
| COC(=O)c1cc(NC(=O)C2=C(C)NC(Nc3nc4ccccc4o3)=NC2c2ccccc2Cl)ccn1 (stereo not shown) [Compound 204, methyl 4-(2-(benzo[d]oxazol-2-ylamino)-4-(2-chlorophenyl)-6-methyl-1,4-dihydropyrimidine-5-carboxamido)picolinate] | 7.69 µM | 7.69 µM | 49.2 1 × 10^−6 cm/sec | <1 µg/mL | >30 m | 10.9 µM | 10.9 µM | – | – |
| COC(=O)c1ccnc(NC(=O)C2=C(C)NC(Nc3nc4ccccc4o3)=N[C@H]2c2ccccc2Cl)c1 [Compound 206, (R)-methyl 2-(2-(benzo[d]oxazol-2-ylamino)-4-(2-chlorophenyl)-6-methyl-1,4-dihydropyrimidine-5-carboxamido)isonicotinate] | – | 3.43 µM | 306.7 1 × 10^−6 cm/sec | <1 µg/mL | 19.99 m | – | 6.85 µM | – | – |

The remaining lines, values ahead:

| IC50 (recombinant human GALK1; [3]) | IC50 (recombinant human GALK1; [4]) | Perm. (1 × 10^−6 cm/sec) (PAMPA permeability) | Sol. [1] | Metab. Stabil. (m) [2] | IC50 (recombinant mouse GALK1; [5]) | IC50 (recombinant mouse GALK1; [6]) | hGALK (μM) (recombinant human GALK1; recombinant human GALK1, Kinase-Glo Plus ATP depletion) | mGALK (μM) (recombinant mouse GALK1; recombinant mouse GALK1, Kinase-Glo Plus ATP depletion) | SMILES |
| --- | --- | --- | --- | --- | --- | --- | --- | --- | --- |
| – | – | 250.4 1 × 10^−6 cm/sec | <1 µg/mL | 25.55 m | – | – | in- active | in- active | COC(=O)c1ccnc(NC(=O)C2=C(C)NC(Nc3nc4ccccc4o3)=N[C@@H]2c2ccccc2Cl)c1 [Compound 207, (S)-methyl 2-(2-(benzo[d]oxazol-2-ylamino)-4-(2-chlorophenyl)-6-methyl-1,4-dihydropyrimidine-5-carboxamido)isonicotinate] |
| 0.54 µM | 0.54 µM | <1 1 × 10^−6 cm/sec | >74 µg/mL | >30 m | 3.43 µM | 3.43 µM | – | – | CC1=C(C(=O)Nc2cc(C(=O)O)ccn2)[C@H](c2ccccc2Cl)N=C(Nc2nc3ccccc3o2)N1 [Compound 208, (R)-2-(2-(benzo[d]oxazol-2-ylamino)-4-(2-chlorophenyl)-6-methyl-1,4-dihydropyrimidine-5-carboxamido)isonicotinic acid] |
| 12.2 µM | 12.2 µM | <1 1 × 10^−6 cm/sec | >74 µg/mL | >30 m | 19.3 µM | 19.3 µM | – | – | CC1=C(C(=O)Nc2cc(C(=O)O)ccn2)[C@@H](c2ccccc2Cl)N=C(Nc2nc3ccccc3o2)N1 [Compound 209, (S)-2-(2-(benzo[d]oxazol-2-ylamino)-4-(2-chlorophenyl)-6-methyl-1,4-dihydropyrimidine-5-carboxamido)isonicotinic acid] |
| – | 3.06 µM | 3.3 1 × 10^−6 cm/sec | 25.4 µg/mL | >30 m | – | 10.9 µM | – | – | CC1=C(C(=O)Nc2cc(C(=O)O)ccc2F)C(c2ccccc2Cl)N=C(Nc2nc3ccccc3o2)N1 (stereo not shown) [Compound 210, 3-(2-(benzo[d]oxazol-2-ylamino)-4-(2-chlorophenyl)-6-methyl-1,4-dihydropyrimidine-5-carboxamido)-4-fluorobenzoic acid] |
| 3.06 µM | 3.06 µM | 109.6 1 × 10^−6 cm/sec | <1 µg/mL | >30 m | 9.68 µM | 9.68 µM | – | – | CC1=C(C(=O)Nc2cc(CO)ccn2)C(c2ccccc2Cl)N=C(Nc2nc3ccccc3o2)N1 (stereo not shown) [Compound 211, 2-(benzo[d]oxazol-2-ylamino)-4-(2-chlorophenyl)-N-(4-(hydroxymethyl)pyridin-2-yl)-6-methyl-1,4-dihydropyrimidine-5-carboxamide] |
| 2.43 µM | 2.43 µM | 156.0 1 × 10^−6 cm/sec | <1 µg/mL | >30 m | 7.69 µM | 7.69 µM | – | – | CC1=C(C(=O)Nc2cc(C(N)=O)ccn2)C(c2ccccc2Cl)N=C(Nc2nc3ccccc3o2)N1 (stereo not shown) [Compound 212, 2-(benzo[d]oxazol-2-ylamino)-N-(4-carbamoylpyridin-2-yl)-4-(2-chlorophenyl)-6-methyl-1,4-dihydropyrimidine-5-carboxamide] |
| 3.06 µM | 3.06 µM | 421.9 1 × 10^−6 cm/sec | <1 µg/mL | >30 m | 10.9 µM | 10.9 µM | – | – | CNC(=O)c1ccnc(NC(=O)C2=C(C)NC(Nc3nc4ccccc4o3)=NC2c2ccccc2Cl)c1 (stereo not shown) [Compound 213, 2-(benzo[d]oxazol-2-ylamino)-4-(2-chlorophenyl)-6-methyl-N-(4-(methylcarbamoyl)pyridin-2-yl)-1,4-dihydropyrimidine-5-carboxamide] |
| – | 4.32 µM | 173.5 1 × 10^−6 cm/sec | <1 µg/mL | >30 m | 10.9 µM | 10.9 µM | – | – | CC1=C(C(=O)Nc2ccccn2)C(c2ccccc2Cl)N=C(Nc2nc3ccccc3o2)N1 (stereo not shown) [Compound 214, 2-(benzo[d]oxazol-2-ylamino)-4-(2-chlorophenyl)-6-methyl-N-(pyridin-2-yl)-1,4-dihydropyrimidine-5-carboxamide] |
